Measurements as given in ChEMBL document CHEMBL1933041, “Synthesis and biological evaluation of substituted pyrazoles as blockers of divalent metal transporter 1 (DMT1)” (Bioorg Med Chem Lett, 2012).

Key:
[1] = Permeability from apical to basolateral side in human Caco2 cells; format: ADME, cell-based; conditions: Caco-2, read-out: permeability
[2] = Permeability from basolateral to apical side in human Caco2 cells; format: ADME, cell-based; conditions: Caco-2, read-out: permeability

Papp A→B [1]	Papp B→A [2]	SMILES
12.7 ×10⁻⁶ cm/s	16.7 ×10⁻⁶ cm/s	COc1ccc2nc(-n3nc4c(c3O)-c3ccccc3CC4)sc2c1
6.6 ×10⁻⁶ cm/s	13.2 ×10⁻⁶ cm/s	COc1ccc(NC(=O)c2c(C)[nH]n(-c3ccccn3)c2=O)cc1F
16.8 ×10⁻⁶ cm/s	20.1 ×10⁻⁶ cm/s	Cc1[nH]n(-c2nc3ccc(F)cc3s2)c(=O)c1-c1ccccc1
0.1 ×10⁻⁶ cm/s	0.9 ×10⁻⁶ cm/s	Oc1c2c(nn1-c1ccccn1)CCc1cc(-c3ccccc3)ccc1-2
11.2 ×10⁻⁶ cm/s	15.9 ×10⁻⁶ cm/s	Cc1[nH]n(-c2ccccn2)c(=O)c1-c1ccc(F)cc1
3.5 ×10⁻⁶ cm/s	5.6 ×10⁻⁶ cm/s	Cc1[nH]n(-c2ccccn2)c(=O)c1-c1ccc([N+](=O)[O-])cc1
9 ×10⁻⁶ cm/s	15.4 ×10⁻⁶ cm/s	COc1cccc(NC(=O)c2c(C)[nH]n(-c3ccccn3)c2=O)c1
21.4 ×10⁻⁶ cm/s	27.8 ×10⁻⁶ cm/s	Cc1[nH]n(-c2ccccn2)c(=O)c1-c1ccc(C#N)cc1
3.1 ×10⁻⁶ cm/s	7.9 ×10⁻⁶ cm/s	Cc1[nH]n(-c2ccccn2)c(=O)c1-c1ccc(C(F)(F)F)cc1
11.2 ×10⁻⁶ cm/s	15.5 ×10⁻⁶ cm/s	Cc1[nH]n(-c2ccccn2)c(=O)c1C(=O)Nc1ccccc1[N+](=O)[O-]
3.2 ×10⁻⁶ cm/s	7.6 ×10⁻⁶ cm/s	Oc1c2c(nn1-c1ccccn1)CCc1cc(Br)ccc1-2
7.6 ×10⁻⁶ cm/s	11.5 ×10⁻⁶ cm/s	Cc1[nH]n(-c2ccccn2)c(=O)c1C(=O)Nc1ccc([N+](=O)[O-])cc1
10.4 ×10⁻⁶ cm/s	19.6 ×10⁻⁶ cm/s	Cc1[nH]n(-c2ccccn2)c(=O)c1C(=O)Nc1ccccc1
10.1 ×10⁻⁶ cm/s	13.5 ×10⁻⁶ cm/s	Cc1nn(-c2nc3ccccc3[nH]2)c(O)c1-c1ccccc1
23.9 ×10⁻⁶ cm/s	23.8 ×10⁻⁶ cm/s	Cc1[nH]n(-c2nccs2)c(=O)c1-c1ccccc1
8.9 ×10⁻⁶ cm/s	11.7 ×10⁻⁶ cm/s	Oc1c2c(nn1-c1ccccn1)CCc1ccccc1-2

Papp A→B [1]	Papp B→A [2]	SMILES
4.5 ×10⁻⁶ cm/s	8.9 ×10⁻⁶ cm/s	Cc1[nH]n(-c2ccccn2)c(=O)c1C(=O)Nc1cccc(C(F)(F)F)c1
9.9 ×10⁻⁶ cm/s	15.6 ×10⁻⁶ cm/s	Cc1cccc(NC(=O)c2c(C)[nH]n(-c3ccccn3)c2=O)c1
7 ×10⁻⁶ cm/s	5.8 ×10⁻⁶ cm/s	Cc1[nH]n(-c2ccccn2)c(=O)c1-c1cccc(C(F)(F)F)c1
9.3 ×10⁻⁶ cm/s	20.8 ×10⁻⁶ cm/s	Cc1[nH]n(-c2ccccn2)c(=O)c1C(=O)Nc1ccc2c(c1)OCO2
0.6 ×10⁻⁶ cm/s	3.9 ×10⁻⁶ cm/s	Cc1[nH]n(-c2ccccn2)c(=O)c1C(=O)Nc1ccc(C(F)(F)F)cc1
0.3 ×10⁻⁶ cm/s	0.6 ×10⁻⁶ cm/s	CCN(CC)c1ccc(/C=C2\C(=O)N(c3ccccn3)N=C2C)cc1
20.8 ×10⁻⁶ cm/s	24 ×10⁻⁶ cm/s	Oc1c2c(nn1-c1nc3ccccc3s1)CCc1ccccc1-2
6.1 ×10⁻⁶ cm/s	15.3 ×10⁻⁶ cm/s	Cc1ccc(NC(=O)c2c(C)[nH]n(-c3ccccn3)c2=O)cc1
5.2 ×10⁻⁶ cm/s	3.4 ×10⁻⁶ cm/s	Cc1ccc2nc(-n3nc4c(c3O)-c3ccccc3CC4)sc2c1
8.2 ×10⁻⁶ cm/s	16.7 ×10⁻⁶ cm/s	Cc1nn(-c2ccccn2)c(O)c1-c1ccccc1
4.3 ×10⁻⁶ cm/s	1.1 ×10⁻⁶ cm/s	Oc1c2c(nn1-c1nc3ccc(F)cc3s1)CCc1ccccc1-2
5.1 ×10⁻⁶ cm/s	6.3 ×10⁻⁶ cm/s	Oc1c2c(nn1-c1nc3ccccc3[nH]1)CCc1ccccc1-2
12.7 ×10⁻⁶ cm/s	16.3 ×10⁻⁶ cm/s	COc1ccc(-c2c(C)[nH]n(-c3ccccn3)c2=O)cc1
2.3 ×10⁻⁶ cm/s	13.1 ×10⁻⁶ cm/s	N#Cc1ccc2c(c1)CCc1nn(-c3ccccn3)c(O)c1-2
7.8 ×10⁻⁶ cm/s	14.2 ×10⁻⁶ cm/s	Cc1[nH]n(-c2ccccn2)c(=O)c1C(=O)Nc1ccccc1C(F)(F)F
6.7 ×10⁻⁶ cm/s	6.6 ×10⁻⁶ cm/s	Cc1nn(-c2nc3ccccc3s2)c(O)c1-c1ccccc1
